Experimental data from patent US20200223826A1, “Glucose-6-Phosphate Dehydrogenase (G6PD)-Modulating Agents And Methods Of Treating G6PD Deficiency” (The Board of Trustees of the Leland Stanford Junior …, priority 2017, published 2020).

What was measured:
[1] = target: T1, Canton G6PD (Homo sapiens, UniProt P11413, R459L); assay: Canton G6PD enzyme activity, diaphorase-coupled assay; format: biochemical
T1 construct: His (pET-28a) (N, cleaved yes); made in house; host or cells: E. coli C43 (DE3)
Protocol: Enzyme activity was measured by monitoring NADPH production, which was coupled with diaphorase converting resazurin to fluorescent resorufin (excitation at 565 nm and emission at 590 nm); fluorescent signal was thus proportional to G6PD activity. Assays were performed at 25° C. and run for 5 minutes in buffer containing 50 mM Tris (pH 7.4), 0.5 mM EDTA, 3.3 mM MgCl2, 1 U/ml diaphorase, 0.1 mM resazurin. 10 ng of recombinant enzymes or 10 μg of cell lysates was used for the assay with 10 μM NADP^+ (Sigma) as cofactor and 100 μM G6P (Sigma) as substrate. Steady-state kinetic parameters were obtained by varying concentrations of NADP^+ (0-10 μM) with a constant concentration of G6P (100 μM) and similarly for G6P (0-100 μM) with a constant concentration of NADP^+ (10 μM) with 10 ng of recombinant enzymes. Data analysis was performed using GraphPad Prism software v.6 (GraphPad Software, La Jolla, Calif. USA). Kinetic parameters were obtained by fitting the data to the Michaelis-Menten equation.
The diaphorase-coupled enzyme assay as described above was used to screen a library of compounds for small molecule activators. The compounds were added to Canton G6PD enzyme reaction mixture at a final concentration of 16.67 μM using Caliper Life Sciences Staccato system with a Twister II robot and a Sciclone ALH3000 (Caliper Life Sciences, Alameda, Calif. USA) integrated with a V&P Scientific pin tool, which was followed by incubation for 3 hours. Addition of G6P then initiated the reaction, which was run for 2.5 minutes. The fluorescent signals were recorded 4 times during the run using Molecular Devices AnalystGT (Molecular Devices, Sunnyvale, Calif. USA). Any compounds showing 30% activation of the enzyme were rescreened in a dose-dependent manner (0-30 μM, duplicate) to identify potential hits.
Based on preliminary results with compound AG1, a variety of compounds of interest were prepared and assessed in G6PD enzyme activation assays, according to the methods described herein.

[2] = system: SH-SY5Y cells; assay: Cell viability assay, SH-SY5Y cells, with and without G6PD siRNA knockdown; format: cell-based, human
Protocol: Cell viability was measured using a Cell-Counting Kit-8 (CCK-8, Dojindo), utilizing WST-8 [2-(2-methoxy-4-nitrophenyl)-3-(4-nitrophenyl)-5-(2,4-disulfophenyl)-2H-tetrazolium monosodium salt, according to the manufacturer's instructions. Cells were subjected to serum starvation for 48 hours before measurement. Cells in 100 μL of medium per well were treated with 10 μL of CCK-8 solution and incubated for 2 hours at 37° C. The absorbance was read at 450 nm. Viability of lymphocytes was measured by staining with a 0.4% solution of trypan blue in buffered isotonic salt solution (pH 7.2). The viability was calculated as the number of viable cells (non-stained by the dye) divided by the total number of cells within the grids on the hemacytometer. Cells were treated with 1 μM of the compound 24 hours before the measurement.
Endogenous G6PD was knocked down in each cell line as follows; 2 pmol of siRNA G6PD (Santa Cruz Biotechnology) and 0.5 μg lipofectamine (Invitrogen) were diluted in 10 μL of Opti-MEM medium respectively and incubated for 5 minutes. The diluted siRNA was combined with diluted lipofectamine, which was followed by additional incubation for 20 minutes prior to the addition to cells in a 96-well plate.

[3] = system: G6PD in zebrafish embryo lysates; assay: G6PD activity in lysates of pooled zebrafish embryos; format: in vivo; details: lysates of pooled AG1-treated embryos
Protocol: Embryos were dechorinated with pronase at 24 hours post fertilization (hpf) and treated with 50 μg/ml of chloroquine and/or AG1 by directly adding the compounds to the well. For ROS measurements, embryos were incubated with compounds for 2 hours, and then the ROS detecting reagent (CM-H2DCFDA) was added at a final concentration of 500 ng/ml to the well for a total treatment time of 5 hours. One embryo was placed to each well of a black, opaque 96-well plate. The florescence was analyzed with excitation/emission at 485/525 nm. After ROS assays, embryos at about 32 hpf were pooled and lysed in buffer containing 50 mM Tris (pH 7.4), 150 mM NaCl, 1 mM EDTA, 0.1% NP-40, and protease inhibitor cocktail, which was followed by three cycles of freeze and thawing in liquid nitrogen. The lysate was centrifuged at 14,000 rpm at 4° C. for 15 minutes. Total protein concentration in the supernatants (total lysate) was determined by Bradford method. 50 μg of total lysate was loaded onto 10% SDS-PAGE gels and the protein level was examined by Western blot using anti-G6PD antibody (Abcam (G6PD: AB87230)). 10 μg of total lysate was used for enzymatic assay. 50 μg of the lysate was used to measure NADPH levels using a NADPH quantification kit (Biovision), according to the manufacturer's instructions.

[4] = target: aldehyde dehydrogenase 3A1 (ALDH3A1) (Homo sapiens, UniProt P30838); assay: Selectivity: dimerization or activity of other NAD/NADP+-dependent enzymes; format: biochemical
Chain of aldehyde dehydrogenase 3A1 (ALDH3A1) (P30838 whole entry, species assumed): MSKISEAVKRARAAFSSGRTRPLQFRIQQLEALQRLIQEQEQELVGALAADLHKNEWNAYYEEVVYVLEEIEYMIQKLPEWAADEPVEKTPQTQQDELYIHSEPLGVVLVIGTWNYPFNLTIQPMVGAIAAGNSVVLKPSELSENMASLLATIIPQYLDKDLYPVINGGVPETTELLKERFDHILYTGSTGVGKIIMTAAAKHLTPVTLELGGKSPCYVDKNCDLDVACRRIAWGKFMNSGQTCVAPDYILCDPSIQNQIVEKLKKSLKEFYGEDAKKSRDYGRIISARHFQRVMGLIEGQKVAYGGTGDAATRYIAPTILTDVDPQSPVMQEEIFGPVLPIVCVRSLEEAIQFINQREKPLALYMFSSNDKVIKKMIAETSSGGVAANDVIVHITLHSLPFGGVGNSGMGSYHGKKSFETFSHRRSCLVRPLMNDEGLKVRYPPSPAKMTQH

T1 sequence (P11413 whole entry R459L): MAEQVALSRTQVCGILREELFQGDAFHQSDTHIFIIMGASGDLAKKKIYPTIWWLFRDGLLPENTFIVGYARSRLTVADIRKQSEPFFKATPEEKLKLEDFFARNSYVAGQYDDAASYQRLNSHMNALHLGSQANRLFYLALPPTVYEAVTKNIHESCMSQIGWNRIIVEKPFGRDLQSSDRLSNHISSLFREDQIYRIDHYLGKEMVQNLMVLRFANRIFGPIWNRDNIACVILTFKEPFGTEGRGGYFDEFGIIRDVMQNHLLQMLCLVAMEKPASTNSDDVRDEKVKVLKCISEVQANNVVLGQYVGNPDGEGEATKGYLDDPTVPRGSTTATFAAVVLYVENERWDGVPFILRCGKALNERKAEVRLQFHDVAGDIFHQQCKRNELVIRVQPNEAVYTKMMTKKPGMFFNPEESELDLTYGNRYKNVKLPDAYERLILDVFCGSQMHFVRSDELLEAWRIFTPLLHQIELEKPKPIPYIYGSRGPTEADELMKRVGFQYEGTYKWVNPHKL

SCCNCCc1c[nH]c2ccccc12 [AG1, 2-[2-(1H-indol-3-yl)ethylamino]ethanethiol]
increase of the activity of Canton G6PD enzyme ([1]; 100 μM of AG1): 70%
kcat (turnover number) ([1]; Canton G6PD in presence of AG1): 296 ± 1 S^−1
EC50 ([1]; read-out: EC50 of activation of Canton G6PD): ~3 µM
increase of viability of SH-SY5Y cells ([2]; 1 μM of AG1): 20%
effect on viability of SH-SY5Y cells ([2]; G6PD knocked down by siRNA): no effect
G6PD activity [3]: slight increase
effect on dimerization or activity [4]: no effect
